Experimental data: ChEMBL document CHEMBL1127456, “Structure-activity studies of antitumor taxanes: synthesis of novel C-13 side chain homologated taxol and taxotere analogs” (J Med Chem, 1994)

Columns and labels:
[1] = target: Tubulin alpha chain (Sus scrofa) (UniProt P02550); test: Tested for the reduction of the supernatant protein concentration by tubulin assembly assay; format: functional
[2] = Ratio between ED50 of compound and ED50 of taxol; format: functional

Sequence of Tubulin alpha chain (Sus scrofa) (P02550 whole entry, looked up): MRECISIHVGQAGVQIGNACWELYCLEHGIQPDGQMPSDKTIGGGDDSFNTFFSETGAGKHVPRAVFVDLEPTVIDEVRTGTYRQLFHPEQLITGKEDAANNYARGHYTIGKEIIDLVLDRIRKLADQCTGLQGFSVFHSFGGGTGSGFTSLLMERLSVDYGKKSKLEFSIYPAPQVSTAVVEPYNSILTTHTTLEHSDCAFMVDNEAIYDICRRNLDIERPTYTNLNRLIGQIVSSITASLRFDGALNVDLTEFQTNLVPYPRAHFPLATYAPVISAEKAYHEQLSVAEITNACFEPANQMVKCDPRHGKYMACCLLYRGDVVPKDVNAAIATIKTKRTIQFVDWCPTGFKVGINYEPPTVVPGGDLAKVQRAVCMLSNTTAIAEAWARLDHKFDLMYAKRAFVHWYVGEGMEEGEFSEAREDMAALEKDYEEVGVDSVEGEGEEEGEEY

Row | ED50 [1] | SMILES | Ratio [2]
1 | 0.93 µM | CC(=O)O[C@H]1C(=O)[C@@]2(C)[C@H]([C@H](OC(=O)c3ccccc3)[C@]3(O)C[C@H](OC(=O)[C@H](O)[C@@H](NC(=O)c4ccccc4)c4ccccc4)C(C)=C1C3(C)C)[C@]1(OC(C)=O)CO[C@@H]1C[C@@H]2O | 1
2 | > 25 µM | CC(=O)O[C@@]12CO[C@@H]1C[C@H](O)[C@@]1(C)C(=O)[C@H](O)C3=C(C)[C@@H](OC(=O)[C@H](O)[C@@H](NC(=O)OC(C)(C)C)c4ccccc4)C[C@@](O)([C@@H](OC(=O)c4ccccc4)[C@H]21)C3(C)C | > 27

Row | SMILES | ED50 [1] | Ratio [2]
3 | CC(=O)O[C@@]12CO[C@@H]1C[C@H](O)[C@@]1(C)C(=O)[C@H](O)C3=C(C)[C@@H](OC(=O)[C@H](O)C(NC(=O)c4ccccc4)c4ccccc4)C[C@@](O)([C@@H](OC(=O)c4ccccc4)C12)C3(C)C (stereo partly specified) | > 25 µM | > 27
